According to ChEMBL document CHEMBL4257544, “Synthesis and biological evaluation of novel asymmetric naphthalene diimide derivatives as anticancer agents depending on ROS generation” (Medchemcomm, 2018):
Activity calls are given as the source filed them. No cut-off for these calls is given here.

Tests used:
[1] = tested on: SMMC-7721; experiment: Induction of autophagy in human SMMC7721 cells assessed as increase in LC3-2 protein expression treated at 1 hr post antioxidant alpha-tocopherol addition and measured after 24 hrs by Western blot analysis; format: functional, cell-based
[2] = tested on: HepG2; experiment: Downregulation of beta-catenin protein expression in human HepG2 cells treated at 1 hr post antioxidant alpha-tocopherol addition and measured after 24 hrs by Western blot analysis; format: functional, cell-based
[3] = tested on: SMMC-7721; experiment: Induction of autophagy in human SMMC7721 cells assessed as vacuolization after 12 hrs; format: functional, cell-based
[4] = tested on: HepG2; experiment: Induction of apoptosis in human HepG2 cells assessed as increase in p53 protein expression treated at 1 hr post antioxidant alpha-tocopherol addition and measured after 24 hrs by Western blot analysis; format: functional, cell-based
[5] = tested on: SMMC-7721; experiment: Induction of autophagy in human SMMC7721 cells assessed as increase in BECN1 level at 1 to 3 uM by Western blot analysis; format: functional, cell-based
[6] = tested on: HepG2; experiment: Antimigratory activity against human HepG2 cells after 24 hrs by scratch wound healing assay; format: functional, cell-based
[7] = tested on: SMMC-7721; experiment: Antimigratory activity against human SMMC7721 cells at 1 to 3 uM after 24 hrs by crystal violet staining based transwell migration assay; format: functional, cell-based
[8] = tested on: SMMC-7721; experiment: Induction of ROS generation in human SMMC7721 cells at 1 to 3 uM after 24 hrs in presence of antioxidant alpha-tocopherol by DCFH-DA staining based HCS analysis; format: functional, cell-based
[9] = tested on: HepG2; experiment: Induction of autophagy in human HepG2 cells assessed as decrease in p62 level at 1 to 3 uM by Western blot analysis; format: functional, cell-based
[10] = tested on: HCT-116; experiment: Cytotoxicity against human HCT116 cells after 48 hrs by MTT assay; format: functional, cell-based; conditions: HCT-116, 48 h
[11] = tested on: HepG2; experiment: Downregulation of Akt phosphorylation at […] residue in human HepG2 cells at 1 to 3 uM after 24 hrs by Western blot analysis; format: functional, cell-based
[12] = tested on: SMMC-7721; experiment: Downregulation of beta-catenin protein expression in human SMMC7721 cells treated at 1 hr post antioxidant alpha-tocopherol addition and measured after 24 hrs by Western blot analysis; format: functional, cell-based
[13] = tested on: HepG2; experiment: Antimigratory activity against human HepG2 cells at 1 to 3 uM after 24 hrs by crystal violet staining based transwell migration assay; format: functional, cell-based
[14] = tested on: HepG2; experiment: Potency index, ratio of amonafide IC50 to compound IC50 for cytotoxicity against human HepG2 cells; format: functional
[15] = tested on: HepG2; experiment: Induction of apoptosis in human HepG2 cells at 3 uM after 48 hrs by Annexin V/propidium iodide staining based flow cytometry relative to control; format: functional
[16] = tested on: SMMC-7721; experiment: Potency index, ratio of amonafide IC50 to compound IC50 for cytotoxicity against human SMMC7721 cells; format: functional
[17] = tested on: SMMC-7721; experiment: Induction of apoptosis in human SMMC7721 cells assessed as increase in p53 protein expression at 1 to 3 uM after 24 hrs by Western blot analysis; format: functional, cell-based
[18] = tested on: HepG2; experiment: Cytotoxicity against human HepG2 cells assessed as reduction in cell volume after 24 hrs; format: functional, cell-based
[19] = tested on: HepG2; experiment: Induction of ROS generation in human HepG2 cells at 1 to 3 uM after 24 hrs in presence of antioxidant alpha-tocopherol by DCFH-DA staining based HCS analysis; format: functional, cell-based
[20] = tested on: HepG2; experiment: Cytotoxicity against human HepG2 cells assessed as reduction in cell viability treated at 1 hr post antioxidant alpha-tocopherol addition by MTT assay; format: functional, cell-based
[21] = tested on: HepG2; experiment: Induction of apoptosis in human HepG2 cells assessed as increase in cleaved PARP1 protein expression treated at 1 hr post antioxidant alpha-tocopherol addition and measured after 24 hrs by Western blot analysis; format: functional, cell-based
[22] = tested on: HepG2; experiment: Induction of apoptosis in human HepG2 cells assessed as decrease in Bcl2 protein expression at 1 to 3 uM after 24 hrs by Western blot analysis; format: functional, cell-based
[23] = tested on: SMMC-7721; experiment: Downregulation of Akt phosphorylation at […] residue in human SMMC7721 cells at 1 to 3 uM after 24 hrs by Western blot analysis; format: functional, cell-based
[24] = tested on: SMMC-7721; experiment: Induction of ROS generation in human SMMC7721 cells at 1 to 3 uM after 24 hrs by DCFH-DA staining based HCS analysis; format: functional, cell-based
[25] = tested on: HepG2; experiment: Cytotoxicity against human HepG2 cells assessed as cytoplasm shrinkage after 24 hrs; format: functional, cell-based
[26] = tested on: SMMC-7721; experiment: Induction of apoptosis in human SMMC7721 cells after 24 hrs by acridine orange/ethidium bromide and Hoechst 33342 staining based HCS analysis; format: functional, cell-based
[27] = tested on: SMMC-7721; experiment: Induction of autophagy in human SMMC7721 cells assessed as vacuolization at 2 uM after 12 hrs by transmission electron microscopic method; format: functional, cell-based
[28] = tested on: SMMC-7721; experiment: Induction of apoptosis in human SMMC7721 cells assessed as increase in cleaved PARP1 protein expression treated at 1 hr post antioxidant alpha-tocopherol addition and measured after 24 hrs by Western blot analysis; format: functional, cell-based
[29] = tested on: SMMC-7721; experiment: Cytotoxicity against human SMMC7721 cells after 24 hrs by MTT assay; format: functional, cell-based; conditions: SMMC-7721, 24 h
[30] = tested on: SMMC-7721; experiment: Induction of apoptosis in human SMMC7721 cells assessed as decrease in Bcl2 protein expression at 1 to 3 uM after 24 hrs by Western blot analysis; format: functional, cell-based
[31] = tested on: HepG2; experiment: Induction of autophagy in human HepG2 cells assessed as increase in BECN1 level at 1 to 3 uM by Western blot analysis; format: functional, cell-based
[32] = tested on: HepG2; experiment: Induction of apoptosis in human HepG2 cells assessed as increase in caspase-8 activation at 1 to 3 uM after 24 hrs by Western blot analysis; format: functional, cell-based
[33] = Cytotoxicity against human QSG7701 cells after 48 hrs by MTT assay; format: cell-based; conditions: QSG7701, 48 h
[34] = tested on: HepG2; experiment: Induction of apoptosis in human HepG2 cells after 24 hrs by acridine orange/ethidium bromide and Hoechst 33342 staining based HCS analysis; format: functional, cell-based
[35] = tested on: HepG2; experiment: Cytotoxicity against human HepG2 cells assessed as morphological changes treated at 1 hr post antioxidant alpha-tocopherol addition and measured after 24 hrs; format: functional, cell-based
[36] = tested on: SMMC-7721; experiment: Cytotoxicity against human SMMC7721 cells assessed as cell rounding after 24 hrs; format: functional, cell-based
[37] = tested on: HepG2; experiment: Cytotoxicity against human HepG2 cells assessed as cell rounding after 24 hrs; format: functional, cell-based
[38] = tested on: SMMC-7721; experiment: Cytotoxicity against human SMMC7721 cells assessed as reduction in cell volume after 24 hrs; format: functional, cell-based
[39] = tested on: HepG2; experiment: Induction of autophagy in human HepG2 cells after 24 hrs by MDC staining based HCS analysis; format: functional, cell-based
[40] = tested on: SMMC-7721; experiment: Induction of autophagy in human SMMC7721 cells assessed as autophagosome formation at 2 uM after 12 hrs by transmission electron microscopic method; format: functional, cell-based
[41] = tested on: SMMC-7721; experiment: Induction of apoptosis in human SMMC7721 cells assessed as increase in caspase-8 activation at 1 to 3 uM after 24 hrs by Western blot analysis; format: functional, cell-based
[42] = tested on: HepG2; experiment: Cytotoxicity against human HepG2 cells assessed as reduction in cell viability in presence of autophagy inhibitor 3-MA by MTT assay; format: functional, cell-based
[43] = tested on: SMMC-7721; experiment: Induction of apoptosis in human SMMC7721 cells assessed as increase in p53 protein expression treated at 1 hr post antioxidant alpha-tocopherol addition and measured after 24 hrs by Western blot analysis; format: functional, cell-based
[44] = tested on: HepG2; experiment: Induction of autophagy in human HepG2 cells assessed as increase in LC3-2 protein expression treated at 1 hr post antioxidant alpha-tocopherol addition and measured after 24 hrs by Western blot analysis; format: functional, cell-based

With CCCCN1C(=O)c2ccc3c4c(ccc(c24)C1=O)C(=O)N(CCCN(C)C)C3=O as the molecule, how does the Activity [1] read?
Its Activity is “inactive”.

What about the Activity [2] of the same molecule?
The Activity was “inactive”.

What about the Activity [3] of the same molecule?
The Activity was “Active”.

What about the Activity [4] of the same molecule?
The Activity was “inactive”.

What about the Activity [5] of the same molecule?
Its Activity is “Active”.

What about the Activity [6] of the same molecule?
Its Activity is “Dose-dependent effect”.

And the Activity [7]?
Its Activity is “Active”.

What about the Activity [8] of the same molecule?
The Activity was “inactive”.

And the Activity [9]?
Its Activity is “Active”.

And the IC50 [10]?
The IC50 was 14.7 µM.

What about the Activity [11] of the same molecule?
The Activity was “Active”.

And the Activity [12]?
The Activity was “inactive”.

And the Activity [13]?
The Activity was “Active”.

And the “Ratio IC50” value [14]?
The value was 5.

What about the Activity [15] of the same molecule?
Its Activity is 67.8%.

What about the “Ratio IC50” value [16] of the same molecule?
The value was 5.

What about the Activity [17] of the same molecule?
Its Activity is “Active”.

And the Activity [18]?
The Activity was “Active”.

And the Activity [19]?
The Activity was “inactive”.

What about the Activity [20] of the same molecule?
The Activity was “inactive”.

What about the Activity [21] of the same molecule?
The Activity was “inactive”.

And the Activity [22]?
The Activity was “Active”.

What about the Activity [23] of the same molecule?
Its Activity is “Active”.

And the Activity [24]?
Its Activity is “Active”.

What about the Activity [25] of the same molecule?
Its Activity is “Active”.

What about the Activity [26] of the same molecule?
The Activity was “Dose-dependent effect”.

What about the Activity [27] of the same molecule?
The Activity was “Active”.

What about the Activity [28] of the same molecule?
The Activity was “inactive”.

What about the IC50 [29] of the same molecule?
The IC50 was 5.38 µM.

What about the Activity [30] of the same molecule?
The Activity was “Active”.

And the Activity [31]?
Its Activity is “Active”.

And the Activity [32]?
Its Activity is “Active”.

And the IC50 [33]?
The IC50 was 7.11 µM.

And the Activity [34]?
The Activity was “Dose-dependent effect”.

What about the Activity [35] of the same molecule?
Its Activity is “inactive”.

What about the Activity [36] of the same molecule?
The Activity was “Active”.

And the Activity [37]?
Its Activity is “Active”.

And the Activity [38]?
Its Activity is “Active”.

What about the Activity [39] of the same molecule?
The Activity was “Dose-dependent effect”.

And the Activity [40]?
Its Activity is “Active”.

And the Activity [41]?
The Activity was “Active”.

What about the Activity [42] of the same molecule?
Its Activity is “inactive”.

What about the Activity [43] of the same molecule?
The Activity was “inactive”.

And the Activity [44]?
Its Activity is “inactive”.
